In PubChem BioAssay (NCI):
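Abbreviation: GI50, concentration required for 50% inhibition of growth. TGI is the concentration that stops growth completely.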

Key:
Test in all cases: inhibition of tumour cell growth, NCI panel, 384-well format
SK-OV-3 ovarian = system: SK-OV-3 ovarian
HCT-116 colon = system: HCT-116 colon
CAKI-1 renal = system: CAKI-1 renal
A498 renal = system: A498 renal
U251 glioblastoma = system: U251 glioblastoma
ACHN renal = system: ACHN renal
SF-268 CNS = system: SF-268 CNS
SW-620 colon = system: SW-620 colon
LOX IMVI melanoma = system: LOX IMVI melanoma
BT-549 breast = system: BT-549 breast
NCI-H23 lung = system: NCI-H23 lung
NCI-H322M lung = system: NCI-H322M lung
OVCAR-8 ovarian = system: OVCAR-8 ovarian
MCF7 breast = system: MCF7 breast
SNB-75 CNS = system: SNB-75 CNS
MALME-3M melanoma = system: MALME-3M melanoma
TK-10 renal = system: TK-10 renal
T-47D breast = system: T-47D breast
HCC-2998 colon = system: HCC-2998 colon
EKVX NSCLC = system: EKVX NSCLC
SF-295 CNS = system: SF-295 CNS
HCT-15 colon = system: HCT-15 colon
786-0 renal = system: 786-0 renal
PC-3 prostate = system: PC-3 prostate
IGROV1 ovarian = system: IGROV1 ovarian
NCI/ADR-RES ovarian = system: NCI/ADR-RES ovarian
A549 NSCLC = system: A549 NSCLC
HOP-92 NSCLC = system: HOP-92 NSCLC
NCI-H226 lung = system: NCI-H226 lung
KM12 colon = system: KM12 colon
HOP-62 NSCLC = system: HOP-62 NSCLC
SNB-19 CNS = system: SNB-19 CNS
OVCAR-4 ovarian = system: OVCAR-4 ovarian
SF-539 CNS = system: SF-539 CNS
MDA-MB-231 breast = system: MDA-MB-231 breast
SK-MEL-28 melanoma = system: SK-MEL-28 melanoma
UO-31 renal = system: UO-31 renal
SK-MEL-5 melanoma = system: SK-MEL-5 melanoma
UACC-62 melanoma = system: UACC-62 melanoma
SN12C renal = system: SN12C renal
DU-145 prostate = system: DU-145 prostate
MDA-MB-468 breast = system: MDA-MB-468 breast
NCI-H460 NSCLC = system: NCI-H460 NSCLC
SR leukemia = system: SR leukemia
OVCAR-5 ovarian = system: OVCAR-5 ovarian
M14 melanoma = system: M14 melanoma
COLO 205 colon = system: COLO 205 colon
HT29 colon = system: HT29 colon
CCRF-CEM leukemia = system: CCRF-CEM leukemia
RXF 393 renal = system: RXF 393 renal
HS 578T breast = system: HS 578T breast
OVCAR-3 ovarian = system: OVCAR-3 ovarian
UACC-257 melanoma = system: UACC-257 melanoma
MDA-MB-435 melanoma = system: MDA-MB-435 melanoma
K-562 leukemia = system: K-562 leukemia
NCI-H522 lung = system: NCI-H522 lung

## CN1CC[C@H](N(C)C(=O)N2CC(c3cc(F)ccc3F)=C[C@@]2(CO)c2ccccc2)[C@H](F)C1
SK-OV-3 ovarian
  TGI: 26.8 µM
HCT-116 colon
  TGI: 14.6 µM
CAKI-1 renal
  TGI: > 100 µM
A498 renal
  TGI: 13 µM
U251 glioblastoma
  TGI: 14.5 µM
ACHN renal
  GI50: 9.3 µM
  TGI: > 100 µM
SF-268 CNS
  TGI: 11.7 µM
SW-620 colon
  TGI: > 100 µM
LOX IMVI melanoma
  TGI: 20 µM
BT-549 breast
  TGI: 13.6 µM
NCI-H23 lung
  TGI: 0.0371 µM
NCI-H322M lung
  TGI: 55.6 µM
OVCAR-8 ovarian
  TGI: 11.4 µM
MCF7 breast
  TGI: 35.4 µM
SNB-75 CNS
  TGI: 27.4 µM
MALME-3M melanoma
  TGI: 14.5 µM
TK-10 renal
  GI50: 4.89 µM
  TGI: 35.3 µM
T-47D breast
  TGI: 43.1 µM
HCC-2998 colon
  TGI: 13.3 µM
EKVX NSCLC
  TGI: 28.2 µM
SF-295 CNS
  TGI: 1.28 µM
HCT-15 colon
  TGI: 28 µM
786-0 renal
  TGI: 12.4 µM
PC-3 prostate
  TGI: 27.1 µM
IGROV1 ovarian
  GI50: 6.07 µM
  TGI: > 100 µM
NCI/ADR-RES ovarian
  TGI: 0.0135 µM
A549 NSCLC
  TGI: > 100 µM
HOP-92 NSCLC
  GI50: 0.198 µM
  TGI: 32.6 µM
NCI-H226 lung
  TGI: 8.16 µM
KM12 colon
  TGI: 10.9 µM
HOP-62 NSCLC
  TGI: 25.9 µM
SNB-19 CNS
  TGI: 27.5 µM
OVCAR-4 ovarian
  GI50: 21.6 µM
  TGI: > 100 µM
SF-539 CNS
  TGI: 11.6 µM
MDA-MB-231 breast
  TGI: > 100 µM
SK-MEL-28 melanoma
  GI50: 0.646 µM
  TGI: 19.5 µM
UO-31 renal
  GI50: 3.34 µM
  TGI: 95.1 µM
SK-MEL-5 melanoma
  TGI: 1.07 µM
UACC-62 melanoma
  TGI: 16.5 µM

## N#CCC1CCN(c2nc(Nc3ccc(N4CCC(O)CC4)cc3)c3c(=O)[nH]ncc3n2)CC1
SN12C renal
  GI50: 0.243 µM
  TGI: > 100 µM
SK-OV-3 ovarian
  GI50: 0.235 µM
  TGI: 4.81 µM
HCT-116 colon
  GI50: 0.336 µM
  TGI: > 100 µM
CAKI-1 renal
  GI50: 0.349 µM
  TGI: > 100 µM
A498 renal
  GI50: 0.804 µM
  TGI: > 100 µM
DU-145 prostate
  GI50: 0.704 µM
  TGI: > 100 µM
ACHN renal
  GI50: 0.547 µM
  TGI: > 100 µM
MDA-MB-468 breast
  GI50: 1.01 µM
  TGI: 3.47 µM
SF-268 CNS
  GI50: 1.43 µM
  TGI: 9.43 µM
NCI-H460 NSCLC
  GI50: 0.319 µM
  TGI: > 100 µM
SW-620 colon
  GI50: 0.441 µM
  TGI: 2.21 µM
LOX IMVI melanoma
  GI50: 0.49 µM
  TGI: 2.6 µM
SR leukemia
  GI50: 0.18 µM
  TGI: 0.327 µM
BT-549 breast
  GI50: 0.538 µM
  TGI: 2.25 µM
NCI-H23 lung
  GI50: 0.293 µM
  TGI: > 100 µM
OVCAR-8 ovarian
  GI50: 5.18 µM
  TGI: > 100 µM
OVCAR-5 ovarian
  GI50: 0.602 µM
  TGI: > 100 µM
MCF7 breast
  GI50: 0.254 µM
  TGI: > 100 µM
SNB-75 CNS
  GI50: 1.24 µM
  TGI: 3.17 µM
MALME-3M melanoma
  GI50: 0.472 µM
  TGI: > 100 µM
M14 melanoma
  GI50: 0.346 µM
  TGI: > 100 µM
TK-10 renal
  GI50: 0.425 µM
  TGI: 4.85 µM
COLO 205 colon
  GI50: 0.24 µM
  TGI: 0.921 µM
T-47D breast
  GI50: 4.39 µM
  TGI: > 100 µM
HCC-2998 colon
  GI50: 0.378 µM
  TGI: 2.91 µM
EKVX NSCLC
  GI50: 0.277 µM
  TGI: > 100 µM
HCT-15 colon
  GI50: 0.453 µM
  TGI: > 100 µM
PC-3 prostate
  GI50: > 100 µM
  TGI: > 100 µM
HT29 colon
  GI50: 0.427 µM
  TGI: > 100 µM
IGROV1 ovarian
  GI50: 0.239 µM
  TGI: 3.48 µM
CCRF-CEM leukemia
  GI50: 0.332 µM
  TGI: > 100 µM
A549 NSCLC
  GI50: 0.365 µM
  TGI: > 100 µM
HOP-92 NSCLC
  GI50: 0.329 µM
  TGI: > 100 µM
NCI-H226 lung
  GI50: 0.281 µM
  TGI: > 100 µM
RXF 393 renal
  GI50: 0.893 µM
  TGI: 3.27 µM
HS 578T breast
  GI50: 0.673 µM
  TGI: 3.54 µM
OVCAR-3 ovarian
  GI50: 1.13 µM
  TGI: > 100 µM
HOP-62 NSCLC
  GI50: 3.71 µM
  TGI: > 100 µM
SNB-19 CNS
  GI50: 2.75 µM
  TGI: > 100 µM
OVCAR-4 ovarian
  GI50: > 100 µM
  TGI: > 100 µM
SF-539 CNS
  GI50: 0.793 µM
  TGI: 2.39 µM
UACC-257 melanoma
  GI50: > 100 µM
  TGI: > 100 µM
MDA-MB-231 breast
  GI50: 5.42 µM
  TGI: > 100 µM
SK-MEL-28 melanoma
  GI50: 0.81 µM
  TGI: > 100 µM
MDA-MB-435 melanoma
  GI50: 0.311 µM
  TGI: > 100 µM
SK-MEL-5 melanoma
  GI50: 0.338 µM
  TGI: > 100 µM
K-562 leukemia
  GI50: 0.482 µM
  TGI: > 100 µM
NCI-H522 lung
  GI50: 0.196 µM
  TGI: 0.929 µM
